The results in this text go back to patent US11938115B2, “Benzoselenophene-based compound, pharmaceutical composition containing same, and antibody-drug conjugate” (priority 2020, dated 2024).

Data set [1] has as its system GBM#1 (Glioblastoma, PDC). Nature of the data set: High-throughput screening, cell viability, GBM#1. As to conditions: seven days after drug treatment. The class given is cell-based. Here is the method: (§1) FIG. 11A, FIG. 11B and FIG. 11C show data confirming the cell viability inhibitory effect of seven types of payloads except Compound 3 (DS-24) on the glioblastoma cell line U87MG, the multiple myeloma cell line KMS11, and the bladder cancer cell line RT112, respectively. Also, FIG. 12A, FIG. 12B, FIG. 12C, FIG. 12D, FIG. 12E and FIG. 12F show data confirming the cell viability inhibitory effect of seven types of payloads except Compound 3 (DS-24) on 6 types of cells derived from a patient with glioblastoma, respectively.
(§2) After treatment with the drug diluted to 14 different concentrations based on 20 μM as the highest concentration, it was verified whether the effect is proportional depending on the drug concentration through the concentration graph for two repeated tests. The cell viability was analyzed seven days after drug treatment to calculate IC50 that inhibits 50% of the cell viability.

For data set [2], the system named is human ovarian cancer cells SK-OV3. The data set is described as follows: Cell growth inhibition assay (ATPlite), SK-OV3. The format is cell-based. On the set-up: unit not given beside the values. Conditions: 3 days of incubation. The method, then: (§3) Her2-positive human gastric cancer cells NCI-N87 and human ovarian cancer cells SK-OV3 purchased from the American Type Culture Collection (ATCC; Manassas, VA, USA) were seeded into a 384-well plate at 500 cells per well. After plating for 2 hours, the cells were treated in quadruplicate with toxins in 5-fold and 14-point serial dilution series. After 3 days of incubation at 37° C. in a 5% CO2 humidified incubator, cell viability was checked using an adenosine triphosphate monitoring system based on firefly luciferase (ATPlite™ 1step, PerkinElmer, MA, USA). IC50 values were calculated as an average of four quadruplicated tests (GraphPad Prism 5.0, CA, and USA). FIG. 13A and FIG. 13B are graphs showing the cell viability of NCI-N87 depending on the concentrations of DS-24 and DS-26, respectively, and FIG. 14A and FIG. 14B are graphs showing the cell viability of SK-OV3 depending on the concentrations of DS-24 and DS-26, respectively.

Data set [3] relates to GBM#4 (Glioblastoma, PDC). The data set is described as follows: High-throughput screening, cell viability, GBM#4. As to conditions: seven days after drug treatment. The format is cell-based. Here is the method:
as §1, §2

For data set [4], the system named is multiple myeloma cell line KMS11. The data set is described as follows: High-throughput screening, cell viability, KMS11. Conditions: seven days after drug treatment. The class given is cell-based. The method, then: as §1, §2
The test system of data set [5] is B16F10 (Murine melanoma Cell line). Nature of the data set: In vivo activity, B16F10 tumor volume. Conditions: 5 ug/kg, 50 ug/kg, 100 ug/kg, IV, twice a week. On the set-up: species or system mouse.
Data set [6] deals with GBM#2 (Glioblastoma, PDC). The data set is described as follows: High-throughput screening, cell viability, GBM#2. The format is cell-based. Conditions: seven days after drug treatment. Here is the method:
as §1, §2

For data set [7], the system named is glioblastoma cell line U87MG. Nature of the data set: High-throughput screening, cell viability, U87MG. The class given is cell-based. Conditions: seven days after drug treatment. Here is the method: as §1, §2
The test system of data set [8] is bladder cancer cell line RT112. Nature of the data set: High-throughput screening, cell viability, RT112. The format is cell-based. Conditions: seven days after drug treatment. Here is the method:
as §1, §2

The test system of data set [9] is Her2-positive human gastric cancer cells NCI-N87. The data set is described as follows: Cell growth inhibition assay (ATPlite), NCI-N87. The class given is cell-based. More on the design: unit not given beside the values. Conditions: 3 days of incubation. The method, then:
as §3

Data set [10] relates to GBM#3 (Glioblastoma, PDC). Nature of the data set: High-throughput screening, cell viability, GBM#3. The class given is cell-based. Conditions: seven days after drug treatment. Here is the method: as §1, §2
Data set [11] relates to NCI cell lines. The data set is described as follows: In vitro cell line activity, NCI NTP program. The format is cell-based. Here is the method: The activity of Compound 3 was checked by requesting a sample to the NCI NTP program.
Based on the results shown in FIG. 6, it was analyzed whether there was any statistical significance in the reactivity depending on cancer types in the cell lines for which the anticancer effect was confirmed by the NCI NTP program.

The subject of data set [12] is cell lines and cells derived from a patient with glioblastoma. The data set is described as follows: High-throughput screening, comparison of payloads across cell lines and brain tumor patient-derived cells. The format is cell-based. As to conditions: for cell viability inhibitory effect compared with the other payloads: all cells; for cell viability inhibitory effect on cells derived from a patient with glioblastoma compared to KMS11 and RT112: comparison between cells. The method, then:
as §1, §2

Data set [13] in a line: Hydrophobic interaction chromatography (HIC) analysis. The format is physicochemical. As to conditions: inferred from HIC, DAR species appear as one.

SMILES strings stand for the structures. pIC50: −log10 of the molar value. Non-standard residues stand in square brackets, D forms with d. Residues, ends and D or L forms follow the SMILES beside them. *: point of attachment. Dolaproine = CO[C@@H]([C@@H]1CCCN1)[C@@H](C)C(=O)O; Dil = CC[C@H](C)[C@H](NC)[C@@H](CC(=O)O)OC; X1 = C[C@@H](N*)[C@@H](O)c1ccccc1; NMeV = CN[C@H](C(=O)O)C(C)C

Regarding `COc1ccc2c(O)cc3c(c2c1)[C@H](CCl)CN3C(=O)c1cc2cc(NC(=O)CCN3CCOCC3)ccc2[se]1` [Compound 3, (S)—N-(2-(1-(chloromethyl)-5-hydroxy-8-methoxy-2,3-dihydro-1H-benzo[e]indole-3-carbonyl)benzo[b]selenophen-5-yl)-3-morpholinopropanamide], the pIC50 in data set [1] (GBM1, 168 h) is 9.01; in data set [3] (168 h), 9.67; in data set [4] (Homo sapiens, KMS-11, 168 h), 10.91; in [6] (GBM2, 168 h) it was 10.58; in data set [7] (Homo sapiens, U-87 MG, 168 h), 10.47; in data set [8] (Homo sapiens, RT-112, 168 h), 11.08. The same compound gave a negative-log IC50 (pIC50) in [10] (GBM3, 168 h) of 10.50. Also, the “AUC (area under the curve), SK-OV3” value in data set [2] came to 160. The “in vivo activity (tumor volume)” value in [5] was “in vivo activity even at a very low concentration”. For the same compound, in data set [9], the “AUC (area under the curve), NCI-N87” value came to 277. Besides, in data set [11] (non-small cell lung cancer, CNS cancer and melanoma compared to leukemia), the “TGI, sensitivity difference between cancer types” value was “tumor growth inhibition effect”. In addition, the “activity by cancer type” value in [11] (non-small lung cancer, CNS cancer, melanoma, renal cancer) is “remarkably strong activity”. Also, in data set [11] (several cell lines), the “GI50 (Growth Inhibition 50%)” value is recorded as “pM or less”. Besides, the “cell viability inhibitory effect compared with the other payloads” value in data set [12] is recorded as “highest cell viability inhibitory effect among the compared materials”.

In the case of `COc1ccc2c(OC(=O)N(CCN(C)C(=O)OCc3ccc(O[C@@H]4O[C@@H](C(=O)O)[C@H](OC(C)=O)[C@@H](OC(C)=O)[C@@H]4OC(C)=O)cc3)Cc3cn(CCOCCOCCOCCNC(=O)CCN4C(=O)C=CC4=O)nn3)cc3c(c2c1)[C@H](CCl)CN3C(=O)c1cc2cc(NC(=O)CCN3CCOCC3)ccc2[se]1` [Compound 3-3, (2R,3R,4R,5S,6S)-3,4,5-triacetoxy-6-(4-((((2-(((((S)-1-(chloromethyl)-8-methoxy-3-(5-(3-morpholinopropanamido)benzo[b]selenophene-2-carbonyl)-2,3-dihydro-1H-benzo[e]indol-5-yl)oxy)carbonyl)((1-(15-(2,5-dioxo-2,5-dihydro-1H-pyrrol-1-yl)-13-oxo-3,6,9-trioxa-12-azapentadecyl)-1H-1,2,3-triazol-4-yl)methyl)amino)ethyl)(methyl)carbamoyl)oxy)methyl)phenoxy)tetrahydro-2H-pyran-2-carboxylic Acid], in data set [13], the “polarity and water solubility” value was “very high polarity and a good water solubility”.

For `COc1cc2cc(c1Cl)N(C)C(=O)C[C@H](OC(=O)[C@H](C)N(C)C(=O)CCS)[C@]1(C)O[C@H]1[C@H](C)[C@@H]1C[C@@](O)(NC(=O)O1)[C@H](OC)/C=C/C=C(\C)C2` [DM1], the pIC50 is 6.88 in data set [1]; 7.04 in data set [3]; 10.36 in data set [4]; 7.02 in data set [6]; 7.88 in data set [7]; 10.37 in data set [8]. In addition, the “cell viability inhibitory effect on cells derived from a patient with glioblastoma compared to KMS11 and RT112” value in data set [12] was “remarkable decrease in the cell viability inhibitory effect”.

Regarding `COc1cc2cc(c1Cl)N(C)C(=O)C[C@H](OC(=O)[C@H](C)N(C)C(=O)CCC(C)(C)S)[C@]1(C)O[C@H]1[C@H](C)[C@@H]1C[C@@](O)(NC(=O)O1)[C@H](OC)/C=C/C=C(\C)C2` [DM4], the pIC50 in [1] is 7.53; in [3], 8.09; in data set [4], 10.64; in data set [6], 7.27; in data set [7], 8.82; in data set [8], 10.69. The “cell viability inhibitory effect on cells derived from a patient with glioblastoma compared to KMS11 and RT112” value in data set [12] is recorded as “remarkable decrease in the cell viability inhibitory effect”.

As to `CC[C@H](C)[C@@H]([C@@H](CC(=O)N1CCC[C@H]1[C@H](OC)[C@@H](C)C(=O)N[C@H](C)[C@@H](O)c1ccccc1)OC)N(C)C(=O)[C@@H](NC(=O)[C@@H](NC)C(C)C)C(C)C` [MMAE] (H-[NMeV]V[Dil][Dolaproine]-X1), the pIC50 was 7.29 in data set [1]; 7.27 in [3]; 9.82 in data set [4]; 7.82 in [6]; 8.47 in [7]; 9.59 in [8]. In addition, the “cell viability inhibitory effect on cells derived from a patient with glioblastoma compared to KMS11 and RT112” value in data set [12] is listed as “remarkable decrease in the cell viability inhibitory effect”.

On to `CC[C@H](C)[C@@H]([C@@H](CC(=O)N1CCC[C@H]1[C@H](OC)[C@@H](C)C(=O)N[C@@H](Cc1ccccc1)C(=O)O)OC)N(C)C(=O)[C@@H](NC(=O)[C@@H](NC)C(C)C)C(C)C` [MMAF] (HELM PEPTIDE1{[meV].V.[CC[C@H](C)[C@@H]([C@@H](CC(=O)[*:2])OC)N(C)[*:1]].[CO[C@H]([C@@H](C)C(=O)[*:2])[C@@H]1CCCN1[*:1]].F}$$$$V2.0), for which the pIC50 was 4.77 in [1]; 5.05 in [3]; 7.04 in data set [4]; 5.87 in [6]; 6.45 in data set [7]; 6.95 in [8]. The same compound had a pIC50 in data set [10] of 4.51. The “cell viability inhibitory effect on cells derived from a patient with glioblastoma compared to KMS11 and RT112” value in data set [12] is “remarkable decrease in the cell viability inhibitory effect”.

In the case of `CCc1c2c(nc3ccc(O)cc13)-c1cc3c(c(=O)n1C2)COC(=O)[C@]3(O)CC` [SN-38], the negative-log IC50 (pIC50) in data set [1] was 6.89; in data set [3], 6.84; in data set [4] it was 6.77; in data set [6], 7.01; in data set [7], 7.17; in [8] it was 7.81. This compound had a negative logarithm of the IC50 (pIC50) in data set [10] of 6.88. Moreover, the “cell viability inhibitory effect compared with the other payloads” value in [12] is listed as “lower cell viability inhibitory effect than the other payloads”.
